According to US7897774B2, “Cyclic compound having quinolylalkylthio group” (Santen Pharmaceutical Co., Ltd., priority 2005, dated 2011):

Test system: VEGF-induced HUVEC proliferation
Assay: VEGF-induced HUVEC proliferation reaction evaluation system (cell proliferation inhibitory action test, WST-8)
Assay type: cell-based, human
Details: HUVEC 2×10^3 cells per well in 100 μL, 5 μL of 20 μg/mL test compound solution per well, 5 μL of 400 ng/mL VEGF solution, WST-8 three days after VEGF, absorbance at 450 nm, control 1.0% DMSO; for inhibition at 20 µg/mL (stock): Homo sapiens, 72 h, read-out: Cell proliferation inhibition rate (%)
Method: In order to find the usefulness of the compound of the present invention, a test for inhibitory effects of the compound of the present invention on cell proliferation was carried out using a VEGF-induced HUVEC proliferation reaction evaluation system (HUVEC: human umbilical vein endothelial cells), which is a method of evaluating antiangiogenic effects of drugs, and the antiangiogenic effects of the compound were evaluated.
As one of the widely used methods of evaluating antiangiogenic effects of drugs, a cell proliferation inhibitory action test using a VEGF-induced HUVEC proliferation reaction evaluation system has been reported in Cancer Res., 59, 99-106 (1999). According to the method described in the above-mentioned document, a cell proliferation inhibitory action test of the compounds of the present invention was carried out, and the cell proliferation inhibition rate was calculated. Then, the antiangiogenic effect of each of the compounds of the present invention was evaluated using the obtained rate as an index.
Each test compound was dissolved in dimethyl sulfoxide (hereinafter abbreviated as DMSO), and the obtained solution was diluted with a commercially available phosphate buffer solution (hereinafter abbreviated as PBS), whereby a 20 μg/mL test compound solution was prepared.
HUVEC was suspended in F12K medium containing 0.5% fetal bovine serum (hereinafter abbreviated as FBS), whereby a 2×10^4 cells/mL HUVEC suspension was prepared.
VEGF was dissolved in PBS containing 0.1% bovine serum albumin, and the obtained solution was diluted with F12K medium containing 0.5% FBS, whereby a 400 ng/mL VEGF solution was prepared.
1) The HUVEC suspension was inoculated in an amount of 100 μL into each well of a 96-well plate coated with type I collagen (2×10^3 cells per well).
2) One day after the inoculation, the test compound solution was added in an amount of 5 μL per well.
3) One hour after the addition of the test compound solution, the VEGF solution was added in an amount of 5 μL per well.
4) Three days after the addition of the VEGF solution, WST-8 assay reagent (Dojin Chemical Co., Ltd.) was added in an amount of 10 μL per well.
5) After 3 hours, the above-mentioned plate was attached to an absorptiometer (Multilabel Counter ARVO), and an absorbance at 450 nm of suspension in each well (hereinafter referred to as a test compound suspension) was measured.
6) A test was carried out in the same manner as in the above 1) to 5) except that 1.0% DMSO was used instead of the test compound solution. The result was used as a control.
Incubation was carried out under conditions of 37° C., 5% carbon dioxide and […] in an incubator throughout the above-mentioned test steps.
The cell proliferation inhibition rate (%), which was used as an index of an antiangiogenic effect, was calculated using the following calculation equation.
(Calculation Equation) Cell proliferation inhibition rate (%)=100−{(Absorbance of test compound suspension−A)/(absorbance of control−A)}×100 A: Absorbance of only cell suspension (cells+medium) (Test Results and Discussion)

SMILES	inhibition at 20 µg/mL (stock) [%]	Cell proliferation inhibition rate (%)
O=C(Nc1cccc(Cl)c1)c1cccnc1SCc1ccc2ncccc2c1 [Compound 1-38, N-(3-Chlorophenyl)-2-(quinolin-6-ylmethylthio)pyridine-3-carboxamide]	100	–
Cc1cccc(NC(=O)c2cccnc2SCc2ccnc3cc(Cl)c(Cl)cc23)c1 [Compound 1-33, 2-(6,7-Dichloroquinolin-4-ylmethylthio)-N-(3-methylphenyl)pyridine-3-carboxamide]	100	–
Cc1cc(C)cc(NC(=O)c2cccnc2SCc2ccnc3ccccc23)c1 [Compound 1-3, N-(3,5-Dimethylphenyl)-2-(quinolin-4-ylmethylthio)pyridine-3-carboxamide]	100	–
COc1ccc(CCNC(=O)c2ccccc2SCc2ccnc3ccccc23)cc1 [Compound 1-26, N-[2-(4-Methoxyphenyl)ethyl]-2-(quinolin-4-ylmethylthio)benzamide]	97	–
O=C(Nc1ccc(Cl)cc1)c1cccnc1SCc1ccnc2ccccc12 [Compound 1-1, N-(4-Chlorophenyl)-2-(quinolin-4-ylmethylthio)pyridine-3-carboxamide]	100	–
Cc1cc(C)cc(NC(=O)c2ccccc2SCc2ccnc3ccccc23)c1 [Compound 2-2, N-(3,5-Dimethylphenyl)-2-(quinolin-4-ylmethylthio)benzamide]	100	–
O=C(Nc1ccc(Cl)cc1)c1ccccc1SCc1ccnc2ccccc12 [Compound 2-3, N-(4-Chlorophenyl)-2-(quinolin-4-ylmethylthio)benzamide]	100	–
Cc1cc(C)cc(NC(=O)c2cccnc2SCc2cc[n+]([O-])c3ccccc23)c1 [Compound 1-35, N-(3,5-Dimethylphenyl)-2-(1-oxoquinolin-4-ylmethylthio)pyridine-3-carboxamide]	–	100
Cc1cc(C)cc(NC(=O)c2cccnc2SCc2ccc3ncccc3c2)c1 [Compound 1-36, N-(3,5-Dimethylphenyl)-2-(quinolin-6-ylmethylthio)pyridine-3-carboxamide]	100	–
Cc1cc(C)cc(NC(=O)c2sccc2SCc2ccnc3ccccc23)c1 [Compound 2-8, N-(3,5-Dimethylphenyl)-3-(quinolin-4-ylmethylthio)thiophene-2-carboxamide]	100	–
COc1cc2nccc(CSc3ncccc3C(=O)Nc3cccc(Cl)c3)c2cc1OC [Compound 1-31, N-(3-Chlorophenyl)-2-(6,7-dimethoxyquinolin-4-ylmethylthio)pyridine-3-carboxamide]	88	–
Cc1cc(C)cc(NC(=O)c2cccnc2SCc2cnc3ccccc3c2)c1 [Compound 1-39, N-(3,5-Dimethylphenyl)-2-(quinolin-3-ylmethylthio)pyridine-3-carboxamide]	100	–
O=C(Nc1ccc(OC(F)(F)F)cc1)c1cccnc1SCc1ccnc2ccccc12 [Compound 2-1, 2-(Quinolin-4-ylmethylthio)-N-(4-trifluoromethoxyphenyl)pyridine-3-carboxamide]	100	–
COc1cc2nccc(CSc3ncccc3C(=O)Nc3cc(C)cc(C)c3)c2cc1OC [Compound 1-30, 2-(6,7-Dimethoxyquinolin-4-ylmethylthio)-N-(3,5-dimethylphenyl)pyridine-3-carboxamide]	70	–
